≈ marks a conversion by molar mass, not a printed value.
Columns and labels:
Format in all cases: functional
[1] = system: Salmonella typhi; test: Antibacterial activity against Salmonella enterica subsp. enterica serovar Typhi at 100 ug/disk after 24 hr by paper disk diffusion method; details: read-out: IZ
[2] = system: Pseudomonas aeruginosa; test: Antibacterial activity against Pseudomonas aeruginosa at 100 ug/disk after 24 hr by paper disk diffusion method; details: read-out: IZ
[3] = system: Salmonella typhi; test: Antibacterial activity against Salmonella enterica subsp. enterica serovar Typhi after 24 hr by agar streak dilution method
[4] = system: Pseudomonas aeruginosa; test: Antibacterial activity against Pseudomonas aeruginosa after 24 hr by agar streak dilution method
[5] = system: Shigella flexneri; test: Antibacterial activity against Shigella flexneri after 24 hr by agar streak dilution method
[6] = system: Bacillus subtilis; test: Antibacterial activity against Bacillus subtilis at 100 ug/disk after 24 hr by paper disk diffusion method; details: read-out: IZ
[7] = system: Klebsiella pneumoniae; test: Antibacterial activity against Klebsiella pneumoniae after 24 hr by agar streak dilution method
[8] = system: Bacillus subtilis; test: Antibacterial activity against Bacillus subtilis after 24 hr by agar streak dilution method
[9] = system: Aspergillus fumigatus; test: Antifungal activity against Aspergillus fumigatus after 48 hr by agar streak dilution method
[10] = system: Aspergillus clavatus; test: Antifungal activity against Aspergillus clavatus at 100 ug/disc after 48 hr by paper disk diffusion method; details: read-out: IZ
[11] = system: Proteus vulgaris; test: Antibacterial activity against Proteus vulgaris at 100 ug/disk after 24 hr by paper disk diffusion method; details: read-out: IZ
[12] = system: Aspergillus fumigatus; test: Antifungal activity against Aspergillus fumigatus at 100 ug/disc after 48 hr by paper disk diffusion method; details: read-out: IZ
[13] = system: Proteus vulgaris; test: Antibacterial activity against Proteus vulgaris after 24 hr by agar streak dilution method
[14] = system: Escherichia coli; test: Antibacterial activity against Escherichia coli at 100 ug/disk after 24 hr by paper disk diffusion method; details: read-out: IZ
[15] = system: Candida albicans; test: Antifungal activity against Candida albicans after 48 hr by agar streak dilution method
[16] = system: Aspergillus niger; test: Antifungal activity against Aspergillus niger at 100 ug/disk after 48 hr by paper disk diffusion method; details: read-out: IZ
[17] = system: Staphylococcus aureus; test: Antibacterial activity against Staphylococcus aureus at 100 ug/disc after 24 hr by paper disk diffusion method; details: read-out: IZ
[18] = system: Escherichia coli; test: Antibacterial activity against Escherichia coli after 24 hr by agar streak dilution method
[19] = system: Shigella flexneri; test: Antibacterial activity against Shigella flexneri at 100 ug/disc after 24 hr by paper disk diffusion method; details: read-out: IZ
[20] = system: Aspergillus niger; test: Antifungal activity against Aspergillus niger after 48 hr by agar streak dilution method
[21] = system: Klebsiella pneumoniae; test: Antibacterial activity against Klebsiella pneumoniae at 100 ug/disk after 24 hr by paper disk diffusion method; details: read-out: IZ
[22] = system: Candida albicans; test: Antifungal activity against Candida albicans at 100 ug/disk after 48 hr by paper disk diffusion method; details: read-out: IZ
[23] = system: Staphylococcus aureus; test: Antibacterial activity against Staphylococcus aureus after 24 hr by agar streak dilution method
[24] = system: Aspergillus clavatus; test: Antifungal activity against Aspergillus clavatus after 48 hr by agar streak dilution method

SMILES | zone of inhibition at 100 µg/disc [1] [mm] | zone of inhibition at 100 µg/disc [2] [mm] | MIC [3] [µg/mL] | MIC [4] [µg/mL] | MIC [5] [µg/mL] | zone of inhibition at 100 µg/disc [6] [mm] | MIC [7] [µg/mL] | MIC [8] [µg/mL] | MIC [9] [µg/mL] | zone of inhibition at 100 µg/disc [10] [mm] | zone of inhibition at 100 µg/disc [11] [mm] | zone of inhibition at 100 µg/disc [12] [mm] | MIC [13] [µg/mL] | zone of inhibition at 100 µg/disc [14] [mm] | MIC [15] [µg/mL] | zone of inhibition at 100 µg/disc [16] [mm] | zone of inhibition at 100 µg/disc [17] [mm] | MIC [18] [µg/mL] | zone of inhibition at 100 µg/disc [19] [mm] | MIC [20] [µg/mL] | also measured
Cc1cc(=O)oc2cc(Oc3nc(Nc4ccc(/N=C/c5ccc(Cl)cc5Cl)cc4)nc(N(C)C)n3)ccc12 | 14 | 12 | 100 (≈ 178 µM) | 100 (≈ 178 µM) | 100 (≈ 178 µM) | 17 | 50 (≈ 89.1 µM) | 50 (≈ 89.1 µM) | 100 (≈ 178 µM) | 17 | 16 | 13 | 50 (≈ 89.1 µM) | 13 | 100 (≈ 178 µM) | 11 | 14 | 100 (≈ 178 µM) | 14 | 100 (≈ 178 µM) | zone of inhibition at 100 µg/disc [21]: 17 mm; zone of inhibition at 100 µg/disc [22]: 12 mm; MIC [23]: 100 µg/mL (≈ 178 µM); MIC [24]: 50 µg/mL (≈ 89.1 µM)
Cc1cc(=O)oc2cc(Oc3nc(Nc4ccc(/N=C/c5ccc(Cl)cc5)cc4)nc(N(C)C)n3)ccc12 | 19 | 11 | 25 (≈ 47.4 µM) | 100 (≈ 190 µM) | 25 (≈ 47.4 µM) | 14 | 100 (≈ 190 µM) | 100 (≈ 190 µM) | 50 (≈ 94.9 µM) | 18 | 17 | 16 | 50 (≈ 94.9 µM) | 16 | 50 (≈ 94.9 µM) | 12 | 17 | 100 (≈ 190 µM) | 21 | 100 (≈ 190 µM) | zone of inhibition at 100 µg/disc [21]: 15 mm; zone of inhibition at 100 µg/disc [22]: 18 mm; MIC [23]: 50 µg/mL (≈ 94.9 µM); MIC [24]: 50 µg/mL (≈ 94.9 µM)
Cc1cc(=O)oc2cc(Oc3nc(Nc4ccc(/N=C/c5ccc(O)cc5O)cc4)nc(N(C)C)n3)ccc12 | 18 | 17 | 50 (≈ 95.3 µM) | 50 (≈ 95.3 µM) | 100 (≈ 191 µM) | 18 | 50 (≈ 95.3 µM) | 25 (≈ 47.7 µM) | 25 (≈ 47.7 µM) | 15 | 17 | 18 | 50 (≈ 95.3 µM) | 18 | 25 (≈ 47.7 µM) | 14 | 20 | 25 (≈ 47.7 µM) | 18 | 100 (≈ 191 µM) | zone of inhibition at 100 µg/disc [21]: 19 mm; zone of inhibition at 100 µg/disc [22]: 20 mm; MIC [23]: 12.5 µg/mL (≈ 23.8 µM); MIC [24]: 100 µg/mL (≈ 191 µM)
Cc1ccc(C2SC(CN3CCN(c4ccccn4)CC3)C(=O)N2c2ccc(Nc3nc(Oc4ccc5c(C)cc(=O)oc5c4)nc(N(C)C)n3)cc2)cc1 (stereo not given) | 21 | 22 | 25 (≈ 33.1 µM) | 50 (≈ 66.1 µM) | 25 (≈ 33.1 µM) | 22 | 50 (≈ 66.1 µM) | 12.5 (≈ 16.5 µM) | 25 (≈ 33.1 µM) | 22 | 18 | 20 | 50 (≈ 66.1 µM) | 18 | 12.5 (≈ 16.5 µM) | 23 | 20 | 50 (≈ 66.1 µM) | 22 | 12.5 (≈ 16.5 µM) | zone of inhibition at 100 µg/disc [21]: 19 mm; zone of inhibition at 100 µg/disc [22]: 24 mm; MIC [23]: 25 µg/mL (≈ 33.1 µM); MIC [24]: 25 µg/mL (≈ 33.1 µM)
Cc1cc(=O)oc2cc(Oc3nc(Nc4ccc(N5C(=O)C(CN6CCN(c7ccccn7)CC6)SC5c5ccc(Cl)c(Cl)c5)cc4)nc(N(C)C)n3)ccc12 (stereo not given) | 20 | 21 | 50 (≈ 61.7 µM) | 25 (≈ 30.8 µM) | 50 (≈ 61.7 µM) | 21 | 50 (≈ 61.7 µM) | 25 (≈ 30.8 µM) | 50 (≈ 61.7 µM) | 20 | 20 | 18 | 25 (≈ 30.8 µM) | 18 | 100 (≈ 123 µM) | 16 | 19 | 50 (≈ 61.7 µM) | 19 | 100 (≈ 123 µM) | zone of inhibition at 100 µg/disc [21]: 19 mm; zone of inhibition at 100 µg/disc [22]: 17 mm; MIC [23]: 50 µg/mL (≈ 61.7 µM); MIC [24]: 50 µg/mL (≈ 61.7 µM)
Cc1cc(=O)oc2cc(Oc3nc(Nc4ccc(N5C(=O)C(CN6CCN(c7ccccn7)CC6)SC5c5ccccc5Br)cc4)nc(N(C)C)n3)ccc12 (stereo not given) | 14 | 22 | 100 (≈ 122 µM) | 25 (≈ 30.5 µM) | 100 (≈ 122 µM) | 22 | 50 (≈ 60.9 µM) | 25 (≈ 30.5 µM) | 6.25 (≈ 7.61 µM) | 23 | 19 | 27 | 50 (≈ 60.9 µM) | 20 | 12.5 (≈ 15.2 µM) | 25 | 20 | 50 (≈ 60.9 µM) | 15 | 25 (≈ 30.5 µM) | zone of inhibition at 100 µg/disc [21]: 17 mm; zone of inhibition at 100 µg/disc [22]: 25 mm; MIC [23]: 50 µg/mL (≈ 60.9 µM); MIC [24]: 12.5 µg/mL (≈ 15.2 µM)
Cc1cc(=O)oc2cc(Oc3nc(Nc4ccc(N5C(=O)C(CN6CCN(c7ccccn7)CC6)SC5c5ccc(O)cc5O)cc4)nc(N(C)C)n3)ccc12 (stereo not given) | 28 | 20 | 6.25 (≈ 8.08 µM) | 25 (≈ 32.3 µM) | 6.25 (≈ 8.08 µM) | 23 | 6.25 (≈ 8.08 µM) | 12.5 (≈ 16.2 µM) | 12.5 (≈ 16.2 µM) | 22 | 22 | 23 | 25 (≈ 32.3 µM) | 23 | 6.25 (≈ 8.08 µM) | 21 | 26 | 12.5 (≈ 16.2 µM) | 26 | 25 (≈ 32.3 µM) | zone of inhibition at 100 µg/disc [21]: 27 mm; zone of inhibition at 100 µg/disc [22]: 27 mm; MIC [23]: 6.25 µg/mL (≈ 8.08 µM); MIC [24]: 12.5 µg/mL (≈ 16.2 µM)
Cc1cc(=O)oc2cc(Oc3nc(Nc4ccc(/N=C/c5ccc(Cl)c(Cl)c5)cc4)nc(N(C)C)n3)ccc12 | 14 | 16 | 100 (≈ 178 µM) | 50 (≈ 89.1 µM) | 100 (≈ 178 µM) | 15 | 100 (≈ 178 µM) | 100 (≈ 178 µM) | 100 (≈ 178 µM) | 15 | 12 | 12 | 100 (≈ 178 µM) | 11 | 100 (≈ 178 µM) | < 10 | 13 | 100 (≈ 178 µM) | 15 | 100 (≈ 178 µM) | zone of inhibition at 100 µg/disc [21]: 12 mm; zone of inhibition at 100 µg/disc [22]: 10 mm; MIC [23]: 100 µg/mL (≈ 178 µM); MIC [24]: 100 µg/mL (≈ 178 µM)
Cc1cc(=O)oc2cc(Oc3nc(Nc4ccc(N5C(=O)CSC5c5ccc(Cl)cc5)cc4)nc(N(C)C)n3)ccc12 (stereo not given) | 21 | 15 | 25 (≈ 41.6 µM) | 100 (≈ 166 µM) | 12.5 (≈ 20.8 µM) | 16 | 50 (≈ 83.2 µM) | 100 (≈ 166 µM) | 50 (≈ 83.2 µM) | 21 | 20 | 18 | 25 (≈ 41.6 µM) | 20 | 25 (≈ 41.6 µM) | 15 | 18 | 50 (≈ 83.2 µM) | 24 | 100 (≈ 166 µM) | zone of inhibition at 100 µg/disc [21]: 18 mm; zone of inhibition at 100 µg/disc [22]: 22 mm; MIC [23]: 50 µg/mL (≈ 83.2 µM); MIC [24]: 25 µg/mL (≈ 41.6 µM)
Cc1cc(=O)oc2cc(Oc3nc(Nc4ccc(N5C(=O)C(CN6CCN(c7ccccn7)CC6)SC5c5ccccc5C(=O)O)cc4)nc(N(C)C)n3)ccc12 (stereo not given) | 11 | 18 | 100 (≈ 127 µM) | 50 (≈ 63.6 µM) | 100 (≈ 127 µM) | 17 | 100 (≈ 127 µM) | 50 (≈ 63.6 µM) | 100 (≈ 127 µM) | 15 | 15 | 13 | 100 (≈ 127 µM) | 13 | 100 (≈ 127 µM) | 15 | 19 | 100 (≈ 127 µM) | 17 | 100 (≈ 127 µM) | zone of inhibition at 100 µg/disc [21]: 15 mm; zone of inhibition at 100 µg/disc [22]: < 10 mm; MIC [23]: 50 µg/mL (≈ 63.6 µM); MIC [24]: 100 µg/mL (≈ 127 µM)

Source: ChEMBL document CHEMBL3046897, “Synthesis of 3-{4-[4-dimethylamino-6-(4-methyl-2-oxo-2H-chromen-7-yloxy)-[1,3,5]triazin-2-ylamino]-phenyl}-2-phenyl-5-(4-pyridin-2-yl-piperazin-1-ylmethyl)-thiazolidin-4-one and their biological evaluation” (2012)
